“Also recorded” adds a separate entry of the source.
System: subjects with symptomatic HCM and LVOT obstruction
Assay: Phase 2 open-label pilot study Pioneer-HCM-A (Cohort A)
Type: in vivo, human
Details: for Lateral e′ Week 12: baseline 6.9 ± 1.9; for E/e′ Week 12: baseline 12.9 ± 3.3
Description: This is a phase 2 open-label pilot study to evaluate the efficacy, PK, PD, safety, and tolerability of Compound 1 in subjects with symptomatic HCM and LVOT obstruction. Approximately 10 adult subjects with symptomatic HCM, a resting LVOT gradient ≥30 mm Hg, and post-exercise peak LVOT gradient ≥50 mm Hg will be enrolled. The study will have a 12-week treatment phase and a 4-week washout phase (FIG. 3).
At Screening, subjects will undergo transthoracic echocardiography (TTE) in the supine or left lateral decubitus position. In addition to a standardized complete TTE, both resting instantaneous peak LVOT gradient (baseline) and provoked peak LVOT gradient will be collected. Subjects will then undergo a standard symptom-limited exercise test (hemodynamic stress echocardiography). Subjects will be assessed systematically for symptoms of dyspnea and/or angina. Instantaneous peak LVOT gradient will be assessed immediately post-exercise by TTE.
On Day 1, resting TTE will be performed, blood samples will be drawn for PK, and subjects will have an assessment of pVO2, VE/VCO2, and other variables via cardiopulmonary exercise testing (CPET). After CPET, subjects will be dosed with open-label oral Compound 1 at the investigational site and will be observed for at least 1 hour after dosing, with assessment of vital signs and ECGs at 1 hour postdose. Subjects will then be supplied with Compound 1 sufficient for QD dosing at home.
Subjects will be evaluated at the investigational site at Weeks 1, 2, 3, 4, 5, 6, 7, 8, 12, and 16. At each of these visits, resting TTE will be performed and blood samples will be drawn for PK. On study visit days, study medication will be administered at the investigational site in order to collect blood samples for PK about 2 hours prior to dosing. At Weeks 4, 12, and 16, hemodynamic stress echocardiography will be performed and peak LVOT gradient will be assessed. CPET will be conducted between Weeks 10 and 12 (inclusive).
The Compound 1 starting dose will be 10 mg for subjects who weigh […] 60 kg and 15 mg for subjects who weigh >60 kg. At the end of Week 4 (Day 28), each subject's LVEF will be evaluated, and the subject's dose may be increased, decreased, or remain unchanged based on the predetermined criteria in Table 6, in consultation between the investigator and the medical monitor. If Compound 1 plasma concentration exceeds 750 ng/mL at Week 2, no dose increase is allowed, regardless of LVEF data at Week 4; however, dose decrease per LVEF data is allowed in this circumstance. The subject will subsequently receive that dose from Week 5 through Week 12.
The following results were obtained generally following the procedures described in Example 3. Each subject in the following trials discontinued β-blocker, calcium-channel blocker, and/or disopyramide therapy at least 14 days prior to the screening visit.

[1] = Cohort A (10-15 mg/day), N = 10, mean ± SD
[2] = Cohort A, baseline to Week 12, n 10

## CC(C)n1c(=O)cc(N[C@@H](C)c2ccccc2)[nH]c1=O [Compound 1, (S)-3-Isopropyl-6-((1-phenylethyl)amino) pyrimidine-2, 4(1H,3H)-dione]
15 mg/day, oHCM patients
  LV filling pressure and diastolic wall stress: improvement in LV filling pressure (reduced E/e′) and diastolic wall stress (reduced NTpro-BNP)
  LVOT gradient: eliminates LVOT gradient
  resting LV systolic function: decreases resting LV systolic function
10, 15 or 20 mg, weeks 0 to 12
  resting LVOT gradient: abolished as early as week 1 in most subjects and by week 2 in all subjects
10 or 15 mg, weeks 0, 4 and 12
  change in LVEF (stress ejection fraction): minimal change
  stress LVOT gradient: abolished
Cohort A (10-15 mg/day), LVEF N = 4, mean ± SD, baseline 70 ± 6
  Resting LVEF Week 12: 54 ± 12%
Cohort A (10-15 mg/day), LVEF N = 4, mean ± SD, baseline 76 ± 5
  Post-exercise LVEF Week 12: 60 ± 22%
Cohort A (10-15 mg/day), N = 10, mean ± SD, baseline 5 4 ± 1 6
  Septal e′ Week 12: 6.4 ± 1.5 cm/s
Cohort A (10-15 mg/day), N = 10, mean ± SD, baseline 5.7 ± 1.2
  Mean e′ Week 12: 7.4 ± 1.6 cm/s
[1]
  Lateral e′ Week 12: 8.8 ± 1.6 cm/s
  E/e′ Week 12: 9.1 ± 2.1
Cohort A (10-15 mg/day), N = 10, mean ± SD, baseline 68 ± 34
  Resting Gradient Week 12: 14 ± 25 mm Hg
Cohort A (10-15 mg/day), N = 10, mean ± SD, baseline 125 ± 60
  Post-exercise Gradient Week 12: 19 ± 13 mm Hg
Cohort A (10-15 mg/day), N = 10, mean ± SD, baseline 939 ± 647
  NT-pro BNP Week 12: 235 ± 417 pg/mL
Cohort A, baseline to Week 12, n 8
  E/e′ Delta: −3.6 ± 3.7
Cohort A, baseline to Week 12, n 9
  Lateral e′ Delta: 1.6 ± 1.9 cm/s
[2]
  Dyspnea score Delta: −3.1 ± 1.4
  LA Vol (index) Delta: 1 ± 7 mL/m^2
  NT-proBNP Delta: −459 ± 722
Cohort A, baseline to Week 12, n 11
  LVEDV Delta: 16 ± 21
Cohort A, baseline 4.9 ± 1.6, n 10
  Dyspnea score Week 12: 1.7 ± 1.8
Cohort A, n 9
  Lateral e′ Week 12: 8.7 ± 1.6 cm/s
Cohort A, n 8
  E/e′ Week 12: 9.1 ± 2.2
Cohort A, baseline 30 ± 10, n 10
  LA Vol (index) Week 12: 31 ± 8 mL/m^2
Cohort A, baseline 82 ± 24, n 11
  LVEDV Week 12: 97 ± 24
Cohort A, baseline 930 ± 647, n 10
  NT-proBNP Week 12: 454 ± 551
Day 1 to Week 16, dosing through week 12
  dyspnea symptom score: improves with Compound 1 administration, returning after cessation of therapy; also recorded: improve
FIG. 8
  resting LVEF versus Compound 1 concentration: exposure-dependent decrease
FIG. 14
  increase in exercise capacity (pVO2) versus change in LVEF: greatest in patients with the least decrease in LVEF
Administration stopped after week 12
  oHCM phenotype after cessation (resting LVOT gradient, resting LVEF): returns after cessation of Compound 1
Associated with minimal change in resting LVEF
  most robust improvements in pVO2: > 3 mL/min/kg
Baseline versus week 12
  peak VO2 during CPET: improves CPET metric; also recorded: improve
  peak circulatory power during CPET: improves CPET metric; also recorded: improve
Doses up to 20 mg QD
  tolerability: well tolerated
plasma
  Compound 1 concentration associated with reduction of resting gradient below hemodynamic significance: > 225 ng/mL
Weeks 0, 4, 8 and 12
  NT-proBNP levels: reduced after 4 weeks of Compound 1 but can rebound with higher exposures
With Compound 1 therapy
  NYHA Class: improve

From patent US20240423981A1, “TREATMENT OF HCM WITH PYRIMIDINEDIONE COMPOUNDS” (MyoKardia, Inc., priority 2017, published 2024)
